From ChEMBL document CHEMBL3887005, “N-cyclopropyl-N-piperidinyl-amides, pharmaceutical compositions containing them, and uses thereof” (2016)

Molecular target: T1, Glucose-dependent insulinotropic receptor (Homo sapiens, UniProt Q8TDV5)
T1 sequence (Q8TDV5 whole entry): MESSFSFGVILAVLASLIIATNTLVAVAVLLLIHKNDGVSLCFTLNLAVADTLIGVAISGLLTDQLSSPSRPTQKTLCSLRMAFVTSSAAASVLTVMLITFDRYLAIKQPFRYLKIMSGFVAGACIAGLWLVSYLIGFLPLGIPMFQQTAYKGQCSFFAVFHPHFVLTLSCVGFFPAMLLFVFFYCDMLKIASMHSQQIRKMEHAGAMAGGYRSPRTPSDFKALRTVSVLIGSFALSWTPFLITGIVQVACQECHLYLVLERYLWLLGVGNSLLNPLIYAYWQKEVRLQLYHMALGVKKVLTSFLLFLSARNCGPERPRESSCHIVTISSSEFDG
Experiment: AlphaScreen cAMP Assay: MIN6 cells [Miyazaki J et al. Endocrinology. 1990 July; 127(1):126-32] are stably transfected with an expression vector for human GPR119 cDNA (Acc. No. NP_848566). Min-6/hGPR119 cells are cultured in DMEM, 10% FBS, 50 uM β-mercaptoethanol, 0.3 mg/mL Geniticin, 2 mM GlutaMAX at 37° C. 5% CO2. For the assay, the cells are seeded in Optiplates (white, 384-well, 160W-barcoded, TC, sterile with lid, Cat. No. #6007688 (Perkin Elmer); 10000 cells/well; 50 ul). The plates covered with lids are then incubated for 24 hours at 37° C./5% CO2. After the medium is aspirated from the wells completely, 10 ul of the test compound are added, the compounds are diluted using stimulating buffer (140 mM NaCl, 3.6 mM KCl, 0.5 mM NaH2PO4, 0.5 mM MgSO4, 1.5 mM CaCl2, 10 mM Hepes, 5 mM NaHCO3; pH 7.4. 0.5 mM IBMX and 0.1% BSA, the final DMSO concentration is 1%). After 45 minutes incubation at room temperature (approx. 20° C.), the cAMP concentrations are determined using the AlphaScreen cAMP Assay Kit (Cat. No. #6760625R from PerkinElmer). […]
Assay type: functional, cell-based

EC50 [nM]	Structure (SMILES)
59	O=C(OC1CCCCC1)N1CCC(N(C(=O)c2ccc(-c3cnco3)cc2)C2CC2)CC1
57	CC(C)(C)OC(=O)N1CCC(N(C(=O)c2ccc(-c3ccc(CS(C)(=O)=O)cc3)cc2)C2CC2)CC1
